According to PMC2364971, “A Spectroscopic Study on PtCl4^(2−) Binding to Rabbit Skeletal Muscle G-Actin” (Metal-Based Drugs, 1995):
pKd: −log10 of the molar value.

Target: T1, G-actin (rabbit skeletal muscle) (Oryctolagus cuniculus, UniProt P68135)
T1 construct: gene ACTA1
Test: fluorescence of NPM reacted with free Cys374 after PtCl4^[…]- incubation; Scatchard approach, least-square fit
Assay type: binding

[Cl][Pt-2]([Cl])([Cl])[Cl] [PtCl4^2−]
pKd: 7.00
